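Values below derive from 48-hour exposures of cells grown in 96-well plates, with endpoints linearly interpolated between the two concentrations bracketing the appropriate inhibition level. Here, GI50 denotes the concentration required for 50% inhibition of growth.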 Activity calls are given as the source filed them. Rule as the data show it: active = GI50 up to about 1.1 µM and inactive = higher.
What was measured:
Assay in all cases: NCI anticancer screen, dose series, 48 h
786-0 = test system: 786-0
A498 = test system: A498
A549 = test system: A549
ACHN = test system: ACHN
BT-549 = test system: BT-549
CAKI-1 = test system: CAKI-1
CCRF-CEM = test system: CCRF-CEM
COLO 205 = test system: COLO 205
DU-145 = test system: DU-145
EKVX = test system: EKVX
HCC 2998 = test system: HCC 2998
HCT-116 = test system: HCT-116
HCT-15 = test system: HCT-15
HL-60 = test system: HL-60
HOP-62 = test system: HOP-62
HOP-92 = test system: HOP-92
HT-29 = test system: HT-29
Hs-578T = test system: Hs-578T
IGROV-1 = test system: IGROV-1
K562 = test system: K562
KM12 = test system: KM12
LOX IMVI = test system: LOX IMVI
M14 = test system: M14
MCF7 = test system: MCF7
MDA-MB-231 = test system: MDA-MB-231
MDA-MB-435 = test system: MDA-MB-435
MDA-N = test system: MDA-N
MOLT-4 = test system: MOLT-4
Malme-3M = test system: Malme-3M
NCI-H226 = test system: NCI-H226
NCI-H23 = test system: NCI-H23
NCI-H460 = test system: NCI-H460
NCI-H522 = test system: NCI-H522
NCI/ADR-RES = test system: NCI/ADR-RES
OVCAR-3 = test system: OVCAR-3
OVCAR-4 = test system: OVCAR-4
OVCAR-5 = test system: OVCAR-5
OVCAR-8 = test system: OVCAR-8
PC-3 = test system: PC-3
RPMI-8226 = test system: RPMI-8226
RXF 393 = test system: RXF 393
SF-268 = test system: SF-268
SF-295 = test system: SF-295
SF-539 = test system: SF-539
SK-MEL-28 = test system: SK-MEL-28
SK-MEL-5 = test system: SK-MEL-5
SK-OV-3 = test system: SK-OV-3
SN12C = test system: SN12C
SNB-19 = test system: SNB-19
SNB-75 = test system: SNB-75
SR = test system: SR
SW-620 = test system: SW-620
T47D = test system: T47D
TK-10 = test system: TK-10
U-251 = test system: U-251
UACC-257 = test system: UACC-257
UACC-62 = test system: UACC-62
UO-31 = test system: UO-31
SK-MEL-2 = test system: SK-MEL-2

Cc1ccc2c(c1)C(=O)C1(C2)Cc2c(C)cccc2C1=O (stereo not given)
GI50 (786-0): > 100 µM (inactive)
GI50 (A498): > 100 µM (inactive)
GI50 (A549): > 100 µM (inactive)
GI50 (ACHN): > 100 µM (inactive)
GI50 (BT-549): > 100 µM (inactive)
GI50 (CAKI-1): > 100 µM (inactive)
GI50 (CCRF-CEM): > 100 µM (inactive)
GI50 (COLO 205): > 100 µM (inactive)
GI50 (DU-145): > 100 µM (inactive)
GI50 (EKVX): > 100 µM (inactive)
GI50 (HCC 2998): > 100 µM (inactive)
GI50 (HCT-116): > 100 µM (inactive)
GI50 (HCT-15): > 100 µM
GI50 (HL-60): > 100 µM (inactive)
GI50 (HOP-62): > 100 µM (inactive)
GI50 (HOP-92): > 100 µM (inactive)
GI50 (HT-29): > 100 µM (inactive)
GI50 (Hs-578T): > 100 µM (inactive)
GI50 (IGROV-1): > 100 µM (inactive)
GI50 (K562): > 100 µM (inactive)
GI50 (KM12): > 100 µM (inactive)
GI50 (LOX IMVI): > 100 µM (inactive)
GI50 (M14): > 100 µM (inactive)
GI50 (MCF7): > 100 µM (inactive)
GI50 (MDA-MB-231): > 100 µM (inactive)
GI50 (MDA-MB-435): > 100 µM (inactive)
GI50 (MDA-N): > 100 µM (inactive)
GI50 (MOLT-4): > 100 µM (inactive)
GI50 (Malme-3M): > 100 µM (inactive)
GI50 (NCI-H226): > 100 µM (inactive)
GI50 (NCI-H23): > 100 µM (inactive)
GI50 (NCI-H460): > 100 µM (inactive)
GI50 (NCI-H522): > 100 µM (inactive)
GI50 (NCI/ADR-RES): > 100 µM (inactive)
GI50 (OVCAR-3): > 100 µM (inactive)
GI50 (OVCAR-4): > 100 µM (inactive)
GI50 (OVCAR-5): > 100 µM (inactive)
GI50 (OVCAR-8): > 100 µM (inactive)
GI50 (PC-3): > 100 µM (inactive)
GI50 (RPMI-8226): > 100 µM (inactive)
GI50 (RXF 393): > 100 µM (inactive)
GI50 (SF-268): > 100 µM (inactive)
GI50 (SF-295): > 100 µM (inactive)
GI50 (SF-539): > 100 µM (inactive)
GI50 (SK-MEL-28): > 100 µM (inactive)
GI50 (SK-MEL-5): > 100 µM (inactive)
GI50 (SK-OV-3): > 100 µM (inactive)
GI50 (SN12C): > 100 µM (inactive)
GI50 (SNB-19): > 100 µM (inactive)
GI50 (SNB-75): > 100 µM (inactive)
GI50 (SR): > 100 µM (inactive)
GI50 (SW-620): > 100 µM (inactive)
GI50 (T47D): > 100 µM (inactive)
GI50 (TK-10): > 100 µM (inactive)
GI50 (U-251): > 100 µM (inactive)
GI50 (UACC-257): > 100 µM (inactive)
GI50 (UACC-62): > 100 µM (inactive)
GI50 (UO-31): > 100 µM (inactive)

C(=C\c1ccccc1)/C=N/c1nc2cc3sc(/N=C/C=C/c4ccccc4)nc3cc2s1
GI50 (786-0): > 100 µM (inactive)
GI50 (A498): > 42.5 µM (inactive)
GI50 (A549): 12.1 µM (inactive)
GI50 (ACHN): > 55.8 µM (inactive)
GI50 (BT-549): > 96.2 µM (inactive)
GI50 (CAKI-1): 70.6 µM (inactive)
GI50 (CCRF-CEM): 8.47 µM (inactive)
GI50 (COLO 205): 1.06 µM (active)
GI50 (DU-145): > 100 µM (inactive)
GI50 (EKVX): 73.1 µM (inactive)
GI50 (HCC 2998): > 100 µM (inactive)
GI50 (HCT-116): 28.5 µM (inactive)
GI50 (HCT-15): 33.7 µM
GI50 (HL-60): 12.1 µM (inactive)
GI50 (HOP-62): 99.3 µM (inactive)
GI50 (HOP-92): > 100 µM (inactive)
GI50 (HT-29): 30.6 µM (inactive)
GI50 (Hs-578T): > 100 µM (inactive)
GI50 (IGROV-1): > 63.2 µM (inactive)
GI50 (K562): 43.3 µM (inactive)
GI50 (KM12): 76.2 µM (inactive)
GI50 (LOX IMVI): 29.9 µM (inactive)
GI50 (M14): > 100 µM (inactive)
GI50 (MCF7): 12.6 µM (inactive)
GI50 (MDA-MB-231): > 100 µM (inactive)
GI50 (MDA-MB-435): > 100 µM (inactive)
GI50 (MDA-N): > 72.1 µM (inactive)
GI50 (MOLT-4): 7.35 µM (inactive)
GI50 (Malme-3M): > 100 µM (inactive)
GI50 (NCI-H226): 0.813 µM (active)
GI50 (NCI-H23): 42.2 µM (inactive)
GI50 (NCI-H460): 4.16 µM (inactive)
GI50 (NCI-H522): 18.2 µM (inactive)
GI50 (NCI/ADR-RES): > 100 µM (inactive)
GI50 (OVCAR-3): 24.3 µM (inactive)
GI50 (OVCAR-4): > 100 µM (inactive)
GI50 (OVCAR-5): > 78.7 µM (inactive)
GI50 (OVCAR-8): > 92.3 µM (inactive)
GI50 (PC-3): > 79.8 µM (inactive)
GI50 (RPMI-8226): > 87.7 µM (inactive)
GI50 (RXF 393): > 100 µM (inactive)
GI50 (SF-268): > 63.4 µM (inactive)
GI50 (SF-295): > 78 µM (inactive)
GI50 (SF-539): > 100 µM (inactive)
GI50 (SK-MEL-28): > 100 µM (inactive)
GI50 (SK-MEL-2): > 100 µM (inactive)
GI50 (SK-MEL-5): > 28.9 µM (inactive)
GI50 (SK-OV-3): > 100 µM (inactive)
GI50 (SN12C): 69.2 µM (inactive)
GI50 (SNB-19): > 100 µM (inactive)
GI50 (SNB-75): > 100 µM (inactive)
GI50 (SR): 2.95 µM (inactive)
GI50 (SW-620): > 45.3 µM (inactive)
GI50 (T47D): 47 µM (inactive)
GI50 (TK-10): > 88.9 µM (inactive)
GI50 (U-251): 25 µM (inactive)
GI50 (UACC-257): > 100 µM (inactive)
GI50 (UACC-62): 99.8 µM (inactive)
GI50 (UO-31): 34.4 µM (inactive)

O=C(c1ccccc1)c1sc2c(=O)c(C(=O)c3ccccc3)c(C(=O)c3ccccc3)sc2c(=O)c1C(=O)c1ccccc1
GI50 (786-0): 32.1 µM (inactive)
GI50 (A498): > 100 µM (inactive)
GI50 (A549): > 100 µM (inactive)
GI50 (ACHN): 51.9 µM (inactive)
GI50 (BT-549): 37.7 µM (inactive)
GI50 (CAKI-1): 18.9 µM (inactive)
GI50 (CCRF-CEM): 23.8 µM (inactive)
GI50 (COLO 205): > 100 µM (inactive)
GI50 (DU-145): > 100 µM (inactive)
GI50 (EKVX): > 100 µM (inactive)
GI50 (HCC 2998): 19.5 µM (inactive)
GI50 (HCT-116): 44.1 µM (inactive)
GI50 (HCT-15): 35 µM
GI50 (HL-60): 21.5 µM (inactive)
GI50 (HOP-62): 51.1 µM (inactive)
GI50 (HOP-92): 37.2 µM (inactive)
GI50 (HT-29): 33.3 µM (inactive)
GI50 (Hs-578T): 77.6 µM (inactive)
GI50 (IGROV-1): 15.6 µM (inactive)
GI50 (K562): 15.9 µM (inactive)
GI50 (KM12): > 100 µM (inactive)
GI50 (LOX IMVI): 25.1 µM (inactive)
GI50 (M14): 31.5 µM (inactive)
GI50 (MCF7): 23.7 µM (inactive)
GI50 (MDA-MB-231): > 100 µM (inactive)
GI50 (MDA-MB-435): 27.1 µM (inactive)
GI50 (MDA-N): 32.2 µM (inactive)
GI50 (MOLT-4): 20.7 µM (inactive)
GI50 (Malme-3M): 75.7 µM (inactive)
GI50 (NCI-H226): 82.4 µM (inactive)
GI50 (NCI-H23): 42.3 µM (inactive)
GI50 (NCI-H460): > 100 µM (inactive)
GI50 (NCI-H522): 18 µM (inactive)
GI50 (NCI/ADR-RES): 24.5 µM (inactive)
GI50 (OVCAR-3): 98.6 µM (inactive)
GI50 (OVCAR-4): > 100 µM (inactive)
GI50 (OVCAR-5): > 100 µM (inactive)
GI50 (OVCAR-8): 35.4 µM (inactive)
GI50 (PC-3): > 100 µM (inactive)
GI50 (RXF 393): 23.8 µM (inactive)
GI50 (SF-268): 46.7 µM (inactive)
GI50 (SF-295): 96.6 µM (inactive)
GI50 (SF-539): 23.6 µM (inactive)
GI50 (SK-MEL-28): > 100 µM (inactive)
GI50 (SK-MEL-2): 50.6 µM (inactive)
GI50 (SK-MEL-5): 32 µM (inactive)
GI50 (SK-OV-3): 37.8 µM (inactive)
GI50 (SN12C): 54.8 µM (inactive)
GI50 (SNB-19): 55.3 µM (inactive)
GI50 (SNB-75): 24.5 µM (inactive)
GI50 (SR): 4.88 µM (inactive)
GI50 (SW-620): 21.8 µM (inactive)
GI50 (T47D): 47.5 µM (inactive)
GI50 (TK-10): 64.3 µM (inactive)
GI50 (U-251): 44.3 µM (inactive)
GI50 (UACC-257): > 100 µM (inactive)
GI50 (UACC-62): > 100 µM (inactive)
GI50 (UO-31): 5.97 µM (inactive)
